Laboratory results published in patent US10052340B2 (XIAMEN UNIVERSITY, priority 2012, dated 2018).

Columns and labels:
[1] = test system: FXR targeting genes and genes associated with the saccharide, triglyceride and cholesterol metabolism; assay: Fluorescence quantitative PCR of liver gene expression in treated wild-type mice; format: in vivo; conditions: wild-type mouse liver, real-time PCR, FIG. 13
Description: Total RNA is extracted from the tissues using an RNA extraction kit (Omega Bio-Tek, GA). TAKARA reverse transcription kit is used for the reverse transcription, and fluorescence quantitative PCR is performed with CFX™ 96 (BIO-RAD) real-time monitoring system using SYBR green fluorescent dye so as to analyze the gene expression level. The expression level of Actin gene is used as the internal reference for the results. The reaction system comprises SYBR Premix Ex Taq (2×) of 12.5 μl, PCR forward primer (10 μM) of 1 μl, PCR reverse primer (10 μM) of 1 μl, cDNA template of 2 μl, and sterilized distilled water of 8.5 μl, 25 μl in total. The two-step amplification PCR procedures are as follows: pre-denaturation at 95° C. for 30 s, PCR reaction at 95° C. for 5 s, and 60° C. for 40 s. 40 cycles.
The expression of genes associated with saccharides, lipids, and cholesterol metabolism in mouse liver treated with ligand medicaments is detected by fluorescent quantitative real-time PCR.

[2] = test system: wild-type C57BL/6J mice; assay: Mouse trial, wild-type mice fed with high-fat diet; conditions: 1.3 mg/kg i.p. daily, 14 days
Description: (§1) Wild-type C57BL/6J mice of 9-10 weeks old, and FXR gene deletion homozygous mice (FXR^−/−) and diabetes and obesity mouse model mice (KK-Ay) with the same background are used, fed with high-fat diet (Research Diets, D12492), with free access to water, in SPF grade animal room in experimental animal center, Xiamen University. […] Intraperitoneal injection is performed one time at 9 o'clock every morning, continued for 14 days, and the mice are measured for body weight and the food intake every two days. At the end of 14 days, the mice are provided with free access to water, and after being hungry for 6 h, the mouse body weights are measured, and the percentage of the final body weight relative to the initial body weight before the treatment of the injection trial indicates the change of mouse body weight. Then blood is sampled from the eye balls, and sera are obtained by separation. The components in serum are detected by the following kits respectively: sugar-oxidase method (Beijing Applygen); insulin (Crystal Chem. Inc., USA); total cholesterol and cholesterol in high and low density lipoprotein (Bioassay Systems, USA); triglyceride (Beijing Applygen and WAKO Chemicals Inc., Japan); free fatty acids (Bioassay Systems, USA); and aspartate aminotransferase and alanine aminotransferase (Biosino Bio-technology and Science Inc., Beijing, China). Mouse liver is taken, a part of which is fixed with paraformaldehyde, and embedded with paraffin, sectioned, and stained with hematoxylin and eosin, and a part of which is cryopreserved with liquid nitrogen for use in extracting RNA for measuring gene expression with fluorescence quantitative PCR.

[3] = biological target: T1, FXR H447F (Homo sapiens, UniProt Q96RI1, H461F); assay: Reporter gene analysis with FXR point mutant H447F in COS-7 cells; format: cell-based; conditions: COS-7, EcRE reporter, vs wild-type FXR, FIG. 5
T1 construct: the expression plasmid expressing full-length FXR (wt) or with mutations at the corresponding sites; expressed in transfected cells; host or cells: COS-7
T1 sequence (Q96RI1 1-472 isoform Q96RI1-2 H447F): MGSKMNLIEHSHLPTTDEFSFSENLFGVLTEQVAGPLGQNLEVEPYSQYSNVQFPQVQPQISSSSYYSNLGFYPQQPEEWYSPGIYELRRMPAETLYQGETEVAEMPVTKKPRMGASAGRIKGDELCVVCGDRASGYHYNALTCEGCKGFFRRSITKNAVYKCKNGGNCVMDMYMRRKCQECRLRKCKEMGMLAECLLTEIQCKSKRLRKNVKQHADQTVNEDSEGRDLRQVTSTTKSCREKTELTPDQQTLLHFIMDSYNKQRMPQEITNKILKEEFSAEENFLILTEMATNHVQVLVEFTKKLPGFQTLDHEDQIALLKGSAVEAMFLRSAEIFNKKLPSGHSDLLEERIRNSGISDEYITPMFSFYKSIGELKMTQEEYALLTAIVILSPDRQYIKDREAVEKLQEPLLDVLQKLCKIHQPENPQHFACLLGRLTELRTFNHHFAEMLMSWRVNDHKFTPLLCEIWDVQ
Description: (2) The expression vector of FXR with point mutations at key binding sites is obtained. Quick-Change site-directed mutagenesis kit (Stratagene) is used for mutation, and the mutation reaction system is as follows: wild-type plasmid pCMX-FXR (50 ng) of 0.5 μl, mutation primer (100 μM) of 0.2 μl, pfu DNA polymerase (Invitrogen) (2 U) of 1 μl, 10 mM dNTPs of 1 μl, 10× PCR buffer of 5 μl, and ddH2O of 43 μl. PCR procedures are performed as follows: 94° C. for 2 min; 94° C. for 30 s, 55° C. for 1 min, 72° C. for 7 min, 15 cycles. 20 μl PCR product is digested with Dpn I […], followed by taking and transforming 2 μl digestion product into E. coli Trans 109 competent cells, ice bath for 30 min, and heat shock at 42° C. for 30 s. 250 μl of LB liquid medium without antibiotics is added, and preshaken at 225 rpm at 37° C. for 40 min, followed by taking 150 μl of products, spreading same on LB solid medium plates with ampicillin at 100 μg/ml and culturing them at 37° C. overnight. On the next day, the single colony is picked out and placed in 2 ml LB liquid medium containing ampicillin at 100 μg/ml, and cultured at 37° C. overnight. Plasmid extraction is performed on the shaken bacterial solution using Qiagen MiniPrep Plasmid Minipreparation Kit. The plasmid is identified by sequencing.

[4] = test system: FXR gene deletion homozygous mice (FXR−/−); assay: Mouse trial, FXR knockout mice fed with high-fat diet; format: in vivo; conditions: 1.3 mg/kg i.p. daily, 14 days
Description: as §1

CC[C@H](C)[C@H]1O[C@]2(CC[C@@H]1C)C[C@@H]1C[C@@H](C/C=C(\C)C(O[C@H]3C[C@H](OC)C(O[C@H]4C[C@H](OC)[C@@H](O)[C@H](C)O4)[C@H](C)O3)[C@@H](C)/C=C/C=C3\CO[C@@H]4[C@H](O)C(C)=CC(C(=O)O1)[C@]34O)O2 (stereo partly shown) [ivermectin]
expression of genes associated with saccharides, lipids and cholesterol metabolism in liver [1]: can regulate the expression of genes associated with metabolism | activity of serum alanine aminotransferase ([2]; FIG. 11): does not affect the transaminase activity | activity of serum aspartate aminotransferase ([2]; FIG. 11): does not affect the transaminase activity | liver injury, liver section stained with hematoxylin and eosin ([2]; FIG. 12): produces no injury to liver cells | cholesterol level in high density lipoprotein ([2]; high-fat diet): significantly downregulated | cholesterol levels in low density and very low density lipoprotein ([2]; high-fat diet): downregulated | serum cholesterol level ([2]; high-fat diet): significantly decreases | serum glucose level ([2]; high-fat diet): significantly decreases | serum insulin level ([2]; high-fat diet): significantly decreases | serum triglyceride (Tg) level ([2]; high-fat diet): significantly decrease | transcriptional activity of FXR mutant H447F [3]: significantly increasing | serum cholesterol level [4]: not producing any significant change | serum glucose level [4]: not producing any significant change | serum insulin level [4]: does not produce any significant change | cholesterol in high density lipoprotein ([4]; FIG. 8): not affected | cholesterol in low density/very low density lipoprotein ([4]; FIG. 8): not affected
